Measurements published in article PMC1262691, “Probing stereoselective inhibition of the acyl binding site of cholesterol esterase with four diastereomers of 2'-N-α-methylbenzylcarbamyl-1, 1'-bi-2-naphthol” (BMC Biochemistry, 2005).
Counter-ions that a name gives are not always drawn.

T1: pancreatic cholesterol esterase (CEase) (Sus scrofa, UniProt A0A286ZKB1)
T1 construct: gene CEL
T1 sequence (A0A286ZKB1 96-682): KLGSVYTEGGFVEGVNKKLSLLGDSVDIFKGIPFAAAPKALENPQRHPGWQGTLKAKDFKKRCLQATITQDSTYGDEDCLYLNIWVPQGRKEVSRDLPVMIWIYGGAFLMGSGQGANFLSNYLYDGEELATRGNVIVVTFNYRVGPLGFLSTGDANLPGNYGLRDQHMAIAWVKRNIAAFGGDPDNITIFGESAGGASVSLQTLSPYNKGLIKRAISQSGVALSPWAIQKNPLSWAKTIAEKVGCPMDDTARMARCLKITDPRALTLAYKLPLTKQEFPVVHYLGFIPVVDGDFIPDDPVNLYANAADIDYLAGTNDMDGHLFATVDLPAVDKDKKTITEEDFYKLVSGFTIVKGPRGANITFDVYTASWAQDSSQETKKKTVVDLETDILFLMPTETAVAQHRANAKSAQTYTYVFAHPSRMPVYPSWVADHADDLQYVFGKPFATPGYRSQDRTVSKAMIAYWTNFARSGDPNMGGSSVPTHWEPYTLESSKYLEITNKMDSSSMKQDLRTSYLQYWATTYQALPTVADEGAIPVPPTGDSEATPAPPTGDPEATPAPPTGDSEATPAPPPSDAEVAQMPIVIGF

B1: pancreatic cholesterol esterase (CEase) (Sus scrofa) (protein)
chain: T1 sequence (A0A286ZKB1 96-682)

Columns and labels:
[1] = molecular target: T1, pancreatic cholesterol esterase (CEase); assay: time-dependent (pseudo substrate) inhibition kinetics, PNPB hydrolysis at […] nm; assay type: biochemical
[2] = molecular target: T1, pancreatic cholesterol esterase (CEase); assay: protection of the enzyme against carbamate inactivation by […] TFA; assay type: biochemical
[3] = substrate: CCCC(=O)Oc1ccc([N+](=O)[O-])cc1; assay: purified protein; assay type: biochemical, Sus scrofa

Row | Molecule | KI (inactivation) [1] [µM] | other results
1 | C[C@@H](NC(=O)Oc1ccc2ccccc2c1-c1c(O)ccc2ccccc12)c1ccccc1 [(1R, αR)-1, 2'-N-(R)-α-methylbenzylcarbamyl-(R)-1, 1'-bi-2-naphthol] | 0.2 ± 0.01 | –
2 | C[C@H](NC(=O)Oc1ccc2ccccc2c1-c1c(O)ccc2ccccc12)c1ccccc1 [(1R, αS)-1, 2'-N-(S)-α-methylbenzylcarbamyl-(R)-1, 1'-bi-2-naphthol] | 0.5 ± 0.03 | –
3 | C[C@@H](NC(=O)Oc1ccc2ccccc2c1-c1c(O)ccc2ccccc12)c1ccccc1 [(1S, αR)-1, 2'-N-(R)-α-methylbenzylcarbamyl-(S)-1, 1'-bi-2-naphthol] | 2 ± 0.1 | –
4 | C[C@H](NC(=O)Oc1ccc2ccccc2c1-c1c(O)ccc2ccccc12)c1ccccc1 [(1S, αS)-1, 2'-N-(S)-α-methylbenzylcarbamyl-(S)-1, 1'-bi-2-naphthol] | 6 ± 0.4 | –
5 | O=C(c1ccccc1)C(F)(F)F [TFA, trifluoroacetophenone] | – | protection of the enzyme against carbamate inactivation by 2 μM TFA [2]: the enzyme is protected from inhibition by carbamate by binding of TFA
6 | B1 | – | Km [3]: 140 ± 10 µM
